Among the data in patent US6518316B1, “Cytokine production and tyrosine kinase inhibitors” (Xenova Limited, priority 1998, dated 2003) are IC50 values, retold here.

For orientation: IC50 means the midpoint of a concentration-inhibition curve.

Where two headings read alike, the source gives them in different places.

In test [1] the test system is IL-2 production by Jurkat E6-1 cells. The experiment in a line: Cytokine (IL-2) release from PMA pre-treated, anti-CD28 stimulated Jurkat E6-1 cells (DELFIA). Format: cell-based. As to conditions: anti-CD28, 18 hours, read-out: IC50 for the inhibition of anti-CD28 induced IL-2 production by Jurkat E6-1 cells. The method, then:
Jurkat E6-1 cell line was obtained from American Tissue Culture Collection (ATCC, Rockville, USA). The cells were pre-treated with 3 ng/ml phorbol myristate acetate (PMA) for three hours, washed and exposed to dose ranges of the compound to be tested followed by the addition of 5 μg/ml anti-CD28.
After 18 hours incubation at 37° C. and 5% CO2, cell culture supernatants were harvested for determination of IL-2 secretion by Dissociation Enhanced Lanthanide Fluorescence Immuno Assay (DELFIA). The effect of compound on cell cytotoxicity was determined using a redox potential sensitive dye, resazurin. Effects on protein synthesis were determined by investigation of [^3H] leucine uptake.

Another test has as its target recombinant abl kinase (Homo sapiens, UniProt P00519). The experiment in a line: Inhibition of tyrosine kinase activity (abl kinase, LANCE time resolved fluorescence). Particulars: abl kinase, peptide 6-20 p34cdc substrate. The class given is biochemical. An excerpt: Phosphorylation of the peptide substrate was detected using a non-separation time resolved fluorescence assay (LANCE™) using anti-phosphotyrosine conjugated europium and streptavidin conjugated allophycocyanin (APC).
On the technique in general: TR-FRET usually uses a lanthanide donor and a delayed reading to cut background.

The mark [2] stands for this setting: Homo sapiens, Jurkat E6.1, PMA pre-treated.

recombinant abl kinase, sequence (P00519 whole entry): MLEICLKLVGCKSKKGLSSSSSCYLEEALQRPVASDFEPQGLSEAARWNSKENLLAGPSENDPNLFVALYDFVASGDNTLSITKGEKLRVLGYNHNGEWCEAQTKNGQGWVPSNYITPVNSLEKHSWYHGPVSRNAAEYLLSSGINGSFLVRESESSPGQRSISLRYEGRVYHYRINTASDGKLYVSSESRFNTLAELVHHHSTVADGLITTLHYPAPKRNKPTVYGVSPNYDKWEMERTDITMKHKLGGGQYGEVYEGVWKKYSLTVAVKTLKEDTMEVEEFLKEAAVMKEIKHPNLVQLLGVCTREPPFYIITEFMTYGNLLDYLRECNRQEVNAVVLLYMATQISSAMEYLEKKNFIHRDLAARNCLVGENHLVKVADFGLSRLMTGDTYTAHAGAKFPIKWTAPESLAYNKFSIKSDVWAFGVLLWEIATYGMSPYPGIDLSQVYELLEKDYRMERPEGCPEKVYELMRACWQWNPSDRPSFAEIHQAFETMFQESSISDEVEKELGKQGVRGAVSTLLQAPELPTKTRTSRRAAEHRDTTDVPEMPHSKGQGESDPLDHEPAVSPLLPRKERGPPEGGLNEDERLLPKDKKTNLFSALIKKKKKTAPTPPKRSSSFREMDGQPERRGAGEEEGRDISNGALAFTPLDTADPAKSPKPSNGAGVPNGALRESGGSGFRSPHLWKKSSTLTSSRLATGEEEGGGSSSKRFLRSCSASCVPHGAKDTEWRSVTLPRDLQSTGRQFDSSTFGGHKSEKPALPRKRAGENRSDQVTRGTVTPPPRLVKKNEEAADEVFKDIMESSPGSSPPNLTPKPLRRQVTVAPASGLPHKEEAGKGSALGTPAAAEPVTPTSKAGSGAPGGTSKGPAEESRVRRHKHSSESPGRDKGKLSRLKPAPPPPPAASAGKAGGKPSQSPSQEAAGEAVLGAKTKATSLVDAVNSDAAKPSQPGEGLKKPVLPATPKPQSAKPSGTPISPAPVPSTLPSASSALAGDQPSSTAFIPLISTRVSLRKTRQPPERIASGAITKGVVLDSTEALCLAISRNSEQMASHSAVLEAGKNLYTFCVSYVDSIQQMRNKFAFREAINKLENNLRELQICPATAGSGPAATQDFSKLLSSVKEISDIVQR

Turning to `CO[C@H]1[C@H](OC)c2c(O)cccc2C2=C3CCC(=O)c4c(O)ccc(c43)[C@@H]21` (relative stereo) [Compound 11a], the IC50 in test [1] (setting [2]) is greater than 6180 nM; at recombinant abl kinase, 2360 nM.

Turning to `COC1C(O)c2c(O)cccc2C2=C3CCC(O)c4c(O)ccc(c43)C21` (single isomer, unassigned) [Compound 2a], the IC50 was 2960 nM in test [1] (setting [2]) and greater than 1000 nM on recombinant abl kinase.

Take `COC1C(O)c2c(O)cccc2C2=C3CCC(O)c4c(O)ccc(c43)C21` (single isomer, unassigned) [Compound 2b]: the IC50 at recombinant abl kinase was greater than 1000 nM.

Take `COC1C(O)c2c(O)cccc2C23OC24CCC(=O)c2c(O)ccc(c24)C13` (centres unmarked) [Compound 3]: the IC50 in test [1] (setting [2]) is greater than 9560 nM; on recombinant abl kinase, 700 nM.

Consider `COc1cccc2c1C(O)C(OC)C1C2=C2CCC(=O)c3c(O)ccc1c32` (centres unmarked) [Compound 4], for which the IC50 in test [1] (setting [2]) was 6640 nM; on recombinant abl kinase it was greater than 1000 nM.

Consider `COC1C(O)c2c(O)cccc2C2=C3CCC(NC4CC4)c4c(O)ccc(c43)C21` (centres unmarked) [Compound 5, 3-Cyclopropylamino-7-methoxy-1,2,3,6b, 7,8-hexahydrobenzo[d]fluoranthen-4,8,9-triol], for which the IC50 was 1280 nM in test [1] (setting [2]) and greater than 1000 nM on recombinant abl kinase.

With `COC1C(O)c2c(O)cccc2C2=C3CCC(=NO)c4c(O)ccc(c43)C21` (centres unmarked) [Compound 7, 4,8,9-Trihydroxy-7-methoxy-1,6b,7,8-tetrahydro-2H-benzo[j]fluoranthen-3-one oxime], the IC50 was greater than 1490 nM in test [1] (setting [2]) and greater than 1000 nM on recombinant abl kinase.

Consider `COC1C(O)c2c(O)cccc2C2=C3CCC(=O)c4c(O)c(Cl)cc(c43)C21` (centres unmarked) [Compound 8, 5-Chloro-4,8,9-trihydroxy-7-methoxy-1,6b,7,8-tetrahydro-2H-benzo[j]fluoranthen-3-one], for which, at recombinant abl kinase, the IC50 was greater than 1000 nM.

On to `CCCOC1c2c(O)cccc2C2=C3CCC(=O)c4c(O)ccc(c43)C2C1OC` (centres unmarked) [Compound 9, 4,9-Dihydro-7-methoxy-8-propoxy-1,6b,7,8-tetrahydro-2H-benzo[j]fluoranthen-3-one], for which the half-maximal inhibitory concentration (IC50) in test [1] (setting [2]) came out at 10900 nM; at recombinant abl kinase, 132 nM.

With `CCOC1c2c(O)cccc2C2=C3CCC(=O)c4c(O)ccc(c43)C2C1OC` (centres unmarked) [Compound 10, 8-Ethoxy-4,9-dihydroxy-7-methoxy-1,6b,7,8-tetrahydro-2H-benzo[j]fluoranthen-3-one], the IC50 in test [1] (setting [2]) worked out at 2350 nM; on recombinant abl kinase it was 274 nM.

As to `CCO[C@@H]1c2c(O)cccc2C2=C3CCC(=O)c4c(O)ccc(c43)[C@@H]2[C@H]1OC` [Compound 10a], the IC50 in test [1] (setting [2]) was greater than 7940 nM; at recombinant abl kinase it was greater than 5000 nM.

`COC1c2c(O)cccc2C2=C3CCC(=O)c4c(O)ccc(c43)C2C1OC` (centres unmarked) [Compound 11, 4,9-Dihydroxy-7,8-dimethoxy-1,6b,7,8-tetrahydro-2H-benzo[j]fluroanthen-3-one]: the figures for the IC50 (in test [1] (PMA pre-treated); at recombinant abl kinase) were 1060 nM and 45 nM, respectively.

For the molecule `COC1C(=O)c2c(O)cccc2C2=C3CCC(=O)c4c(O)ccc(c43)C21` (centres unmarked) [Compound (II)], the IC50 (in test [1] (setting [2]); on recombinant abl kinase) was greater than 5000 nM each time.

With `COC1c2c(O)cccc2C2=C3CCC(=O)c4c(O)ccc(c43)C2C1OC` (centres unmarked) [Compound (III)], the IC50 in test [1] (PMA pre-treated) was determined as 4300 nM.

As for `CO[C@H]1[C@@H](O)c2c(O)cccc2C2=C3CCC(=O)c4c(O)ccc(c43)[C@H]21` [Compound (Ib)], the IC50 in test [1] (setting [2]) came to 2500 nM.
